According to patent US9376425B2, “Heterocyclic compounds as MDM2 inhibitors for the treatment of cancer” (AMGEN INC., priority 2011, dated 2016):

Molecular target: T1, human MDM2 (GST-hMDM2 1-188), interaction with biotinylated-p53 (1-83) (Homo sapiens, UniProt Q00987)
T1 construct: Amino acid residues 1-188 of human MDM2 were expressed; made in house; host or cells: Escherichia coli
Experiment: improved HTRF assay (HTRF2 assay), inhibition of HDM2-p53 interaction
Assay type: binding
Details: 0.2 nM GST-hMDM2, 0.5 nM biotinylated-p53, 100 mM KF
Outline: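 GST-hMDM2 preincubated 20 min at RT with serially diluted compound, then biotinylated p53 (1-83, E. coli) added for 60 min. Detection with SA-XLent, anti-GST cryptate and KF, equilibrated >4 h; final DMSO 2%. TR-FRET read; % inhibition calculated relative to nutlin-3.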

T1 sequence (Q00987 1-188): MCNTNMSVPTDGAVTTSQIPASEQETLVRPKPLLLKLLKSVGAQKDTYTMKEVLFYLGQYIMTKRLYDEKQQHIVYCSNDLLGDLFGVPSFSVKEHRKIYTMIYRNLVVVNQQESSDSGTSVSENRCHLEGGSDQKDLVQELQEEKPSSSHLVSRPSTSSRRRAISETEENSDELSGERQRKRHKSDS

| Compound | IC50 [nM] |
| --- | --- |
| O=C(O)C[C@H]1O[C@H](c2cccc(Cl)c2)[C@@H](c2ccc(Cl)cc2)N([C@H](CS(=O)(=O)Nc2ccccc2F)C2CC2)C1=O (single isomer, unassigned) [Example 294, 2-((2R,5R,6R)-6-(3-Chlorophenyl)-5-(4-chlorophenyl)-4-((S)-1-cyclopropyl-2-(N-(2-fluorophenyl)sulfamoyl)ethyl)-3-oxomorpholin-2-yl)acetic acid or 2-((2S,5R,6R)-6-(3-chlorophenyl)-5-(4-chlorophenyl)-4-((S)-1-cyclopropyl-2-(N-(2-fluorophenyl)sulfamoyl)ethyl)-3-oxomorpholin-2-yl)acetic acid] | < 1 |
| O=C(O)C[C@H]1O[C@H](c2cccc(Cl)c2)[C@@H](c2ccc(Cl)cc2)N([C@H](CS(=O)(=O)Nc2ccccc2F)C2CC2)C1=O (single isomer, unassigned) [Example 295, 2-((2R,5R,6R)-6-(3-Chlorophenyl)-5-(4-chlorophenyl)-4-((S)-1-cyclopropyl-2-(N-(2-fluorophenyl)sulfamoyl)ethyl)-3-oxomorpholin-2-yl)acetic acid or 2-((2S,5R,6R)-6-(3-chlorophenyl)-5-(4-chlorophenyl)-4-((S)-1-cyclopropyl-2-(N-(2-fluorophenyl)sulfamoyl)ethyl)-3-oxomorpholin-2-yl)acetic acid] | 2 |
| C[C@H]1CCCN1S(=O)(=O)C[C@H](C1CC1)N1C(=O)[C@@H](CC(=O)O)O[C@H](c2cccc(Cl)c2)[C@H]1c1ccc(Cl)cc1 (single isomer, unassigned) [Example 296, 2-((2R,5R,6R)-6-(3-Chlorophenyl)-5-(4-chlorophenyl)-4-((S)-1-cyclopropyl-2-(((S)-2-methylpyrrolidin-1-yl)sulfonyl)ethyl)-3-oxomorpholin-2-yl)acetic acid or 2-((2S,5R,6R)-6-(3-chlorophenyl)-5-(4-chlorophenyl)-4-((S)-1-cyclopropyl-2-(((S)-2-methylpyrrolidin-1-yl)sulfonyl)ethyl)-3-oxomorpholin-2-yl)acetic acid] | < 1 |
| C[C@H]1CCCN1S(=O)(=O)C[C@H](C1CC1)N1C(=O)[C@@H](CC(=O)O)O[C@H](c2cccc(Cl)c2)[C@H]1c1ccc(Cl)cc1 (single isomer, unassigned) [Example 297, 2-((2R,5R,6R)-6-(3-Chlorophenyl)-5-(4-chlorophenyl)-4-((S)-1-cyclopropyl-2-(((S)-2-methylpyrrolidin-1-yl)sulfonyl)ethyl)-3-oxomorpholin-2-yl)acetic acid or 2-((2S,5R,6R)-6-(3-chlorophenyl)-5-(4-chlorophenyl)-4-((S)-1-cyclopropyl-2-(((S)-2-methylpyrrolidin-1-yl)sulfonyl)ethyl)-3-oxomorpholin-2-yl)acetic acid] | < 1 |
| O=C(O)C[C@H]1O[C@H](c2cccc(Cl)c2)[C@@H](c2ccc(Cl)cc2)N([C@H](CS(=O)(=O)N2CCc3cc(F)ccc32)C2CC2)C1=O (single isomer, unassigned) [Example 298, 2-((2R,5R,6R)-6-(3-Chlorophenyl)-5-(4-chlorophenyl)-4-((S)-1-cyclopropyl-2-((5-fluoroindolin-1-yl)sulfonyl)ethyl)-3-oxomorpholin-2-yl)acetic acid or 2-((2S,5R,6R)-6-(3-chlorophenyl)-5-(4-chlorophenyl)-4-((S)-1-cyclopropyl-2-((5-fluoroindolin-1-yl)sulfonyl)ethyl)-3-oxomorpholin-2-yl)acetic acid] | 26 |
| O=C(O)C[C@H]1O[C@H](c2cccc(Cl)c2)[C@@H](c2ccc(Cl)cc2)N([C@H](CS(=O)(=O)N2CCc3cc(F)ccc32)C2CC2)C1=O (single isomer, unassigned) [Example 299, 2-((2R,5R,6R)-6-(3-Chlorophenyl)-5-(4-chlorophenyl)-4-((S)-1-cyclopropyl-2-((5-fluoroindolin-1-yl)sulfonyl)ethyl)-3-oxomorpholin-2-yl)acetic acid or 2-((2S,5R,6R)-6-(3-chlorophenyl)-5-(4-chlorophenyl)-4-((S)-1-cyclopropyl-2-((5-fluoroindolin-1-yl)sulfonyl)ethyl)-3-oxomorpholin-2-yl)acetic acid] | 11 |
